Results from patent publication US20240148821A1, “PHARMACEUTICAL USE OF CYCLIC PEPTIDE COMPOUND” (CHUGAI SEIYAKU KABUSHIKI KAISHA, priority 2021, published 2024).
Numbered stars: 1 amine (or outer) side, 2 acyl side, 3 side chain; on linkers, the order of the positions; unused ones are H or OH. Bridge positions count the residues as written; N and C are the ends. Square brackets hold non-standard residues; d marks the D form. Peptide text beside a SMILES is read from it. * marks the point of attachment. hPhe(3,5-F2-4-CF3) = N[C@@H](CCc1cc(F)c(C(F)(F)F)c(F)c1)C(=O)O; hPhe(3-Cl-4-CF3) = N[C@@H](CCc1ccc(C(F)(F)F)c(Cl)c1)C(=O)O; hPhe(3-F,4-CF3) = N[C@@H](CCc1ccc(C(F)(F)F)c(F)c1)C(=O)O; NEtPhe(4-CF3) = CCN[C@@H](Cc1ccc(C(F)(F)F)cc1)C(=O)O; NMePhe(4-CF3) = CN[C@@H](Cc1ccc(C(F)(F)F)cc1)C(=O)O; NMedβ3hAla = C[C@H](CC(=O)[*:2])N(C)[*:1]; NMeGly(cPent) = CN[C@H](C(=O)O)C1CCCC1; Pro(4,4-F2) = O=C(O)[C@@H]1CC(F)(F)CN1; NMeCha = CN[C@@H](CC1CCCCC1)C(=O)O; Gly(N-(CH2)2OEt) = CCOCCNCC(=O)O; NMeChg = CN[C@H](C(=O)O)C1CCCCC1; NMeI = CC[C@H](C)[C@H](NC)C(=O)O; NMeD = CN[C@@H](CC(=O)O)C(=O)O; NMeL = CN[C@@H](CC(C)C)C(=O)O; NMeV = CN[C@H](C(=O)O)C(C)C; d(β3hA) = C[C@@H](N)CC(=O)O; NMeS = CN[C@@H](CO)C(=O)O; NAllylGly = C=CCNCC(=O)O; NMeA = CN[C@@H](C)C(=O)O; Piperidide = C1CCN(*)CC1; Pyrrolidide = C1CCN(*)C1; Ac5c = NC1(C(=O)O)CCCC1; Aze = O=C(O)[C@@H]1CCN1; Cyclobutyl = C1CC(*)C1; Sar = CNCC(=O)O

Each compound was assayed against protein-protein interaction between Kras and SOS1 (biotin-tagged human Kras loaded with GDP, His-tagged human SOS1) (Homo sapiens (Human), UniProt P01116, G12D) (assay: Protein-protein interaction inhibition between Kras and SOS1 (KrasG12D-SOS PPI) using AlphaScreen). Conditions: AlphaScreen; biotin-tagged human Kras loaded with GDP, His-tagged human SOS1; read-out: KRAS G12D-SOS PPI IC50.
Assay type: biochemical

Structure (SMILES)	IC50 [nM]
CC[C@H](C)[C@@H]1NC(=O)[C@H](CC(C)C)N(C)C(=O)C[C@@H](C(=O)N2CCCC2)N(C)C(=O)[C@H]([C@@H](C)CC)N(C)C(=O)C2(CCCC2)NC(=O)[C@@H]2CCCN2C(=O)[C@H](CCc2ccc(C(F)(F)F)c(F)c2)NC(=O)CN(C)C(=O)[C@H](CC2CCCCC2)N(C)C(=O)[C@@H]2CCN2C(=O)[C@H](C)N(C)C1=O [Compound 868] ([NMeL]I[NMeA][Aze][NMeCha][Sar][hPhe(3-F,4-CF3)]P[Ac5c][NMeI][NMeD]-Pyrrolidide; lactam N-11)	2.9
CCOCCN1CC(=O)NC2(CCCC2)C(=O)N(C)[C@@H](C2CCCCC2)C(=O)N(C)[C@H](C(=O)N2CCCCC2)CC(=O)N(C)[C@@H](CC(C)C)C(=O)N[C@@H]([C@@H](C)CC)C(=O)N(C)CC(=O)N(C)CC(=O)N(C)[C@@H](CC2CCCCC2)C(=O)N(C)CC(=O)N[C@@H](CCc2ccc(C(F)(F)F)c(Cl)c2)C1=O [Compound 872, (11S,17S,26S,29S,33S,36S)-11-[2-[3-chloro-4-(trifluoromethyl)phenyl]ethyl]-36-cyclohexyl-17-(cyclohexylmethyl)-9-(2-ethoxyethyl)-29-isobutyl-15,18,21,24,30,34,37-heptamethyl-26-[(1S)-1-methylpropyl]-33-(piperidine-1-carbonyl)-6,9,12,15,18,21,24,27,30,34,37-undecazaspiro[4.33]octatriacontane-7,10,13,16,19,22,25,28,31,35,38-undecone] ([NMeL]I[Sar][Sar][NMeCha][Sar][hPhe(3-Cl-4-CF3)][Gly(N-(CH2)2OEt)][Ac5c][NMeChg][NMeD]-Piperidide; lactam N-11)	1.9
CC[C@H](C)[C@@H]1NC(=O)[C@H](C2CCCCC2)N(C)C(=O)C[C@@H](C)NC(=O)[C@H](C(C)C)N(C)C(=O)C2(CCCC2)NC(=O)[C@@H]2CCCN2C(=O)[C@H](CCc2ccc(C(F)(F)F)c(Cl)c2)NC(=O)CN(C)C(=O)[C@H](CC2CCCCC2)N(C)C(=O)[C@@H]2CCN2C(=O)[C@H](C)N(C)C1=O [Compound 873] (cyclo([Ac5c][NMeV][d(β3hA)][NMeChg]I[NMeA][Aze][NMeCha][Sar][hPhe(3-Cl-4-CF3)]P))	51
CC[C@H](C)[C@@H]1NC(=O)[C@H](CC(C)C)N(C)C(=O)C[C@@H](C(=O)N2CCCCC2)N(C)C(=O)[C@H]([C@@H](C)CC)N(C)C(=O)C2(CCCC2)NC(=O)[C@@H]2CCCN2C(=O)[C@H](CCc2ccc(C(F)(F)F)c(Cl)c2)NC(=O)CN(C)C(=O)[C@H](COC2CCC2)N(C)C(=O)[C@@H]2CCN2C(=O)[C@H](C)N(C)C1=O [Compound 885] ([NMeL]I[NMeA][Aze][NMeS](Cyclobutyl)[Sar][hPhe(3-Cl-4-CF3)]P[Ac5c][NMeI][NMeD]-Piperidide; lactam N-11)	1.9
CC[C@H](C)[C@@H]1NC(=O)[C@H](CC(C)C)N(C)C(=O)C[C@@H](C)N(C)C(=O)[C@H]([C@@H](C)CC)N(C)C(=O)C2(CCCC2)NC(=O)[C@@H]2CCCN2C(=O)[C@H](CCc2ccc(C(F)(F)F)c(Cl)c2)NC(=O)CN(C)C(=O)[C@H](Cc2ccc(C(F)(F)F)cc2)N(CC)C(=O)[C@@H]2CCN2C(=O)[C@H](C)N(C)C1=O [Compound 898] (cyclo([Ac5c][NMeI][NMedβ3hAla][NMeL]I[NMeA][Aze][NEtPhe(4-CF3)][Sar][hPhe(3-Cl-4-CF3)]P))	12
C=CCN1CC(=O)NC2(CCCC2)C(=O)N(C)[C@@H](C2CCCCC2)C(=O)N(C)[C@H](C(=O)N2CCCCC2)CC(=O)N(C)[C@@H](CC(C)C)C(=O)N[C@@H]([C@@H](C)CC)C(=O)N(C)CC(=O)N(C)CC(=O)N(C)[C@@H](CC2CCCCC2)C(=O)N(C)CC(=O)N[C@@H](CCc2ccc(C(F)(F)F)c(Cl)c2)C1=O [Compound 899] ([NMeL]I[Sar][Sar][NMeCha][Sar][hPhe(3-Cl-4-CF3)][NAllylGly][Ac5c][NMeChg][NMeD]-Piperidide; lactam N-11 (inferred); C-terminus assumed)	1.9
CC[C@H](C)[C@@H]1NC(=O)[C@H](CC(C)C)N(C)C(=O)C[C@@H](C)N(C)C(=O)[C@H](C2CCCC2)N(C)C(=O)C2(CCCC2)NC(=O)[C@@H]2CC(F)(F)CN2C(=O)[C@H](CCc2cc(F)c(C(F)(F)F)c(F)c2)NC(=O)CN(C)C(=O)[C@H](Cc2ccc(C(F)(F)F)cc2)N(C)C(=O)[C@@H]2CCN2C(=O)[C@H](C)N(C)C1=O [Compound 900] (cyclo([Ac5c][NMeGly(cPent)][NMedβ3hAla][NMeL]I[NMeA][Aze][NMePhe(4-CF3)][Sar][hPhe(3,5-F2-4-CF3)][Pro(4,4-F2)]))	0.84
CC[C@H](C)[C@@H]1NC(=O)[C@H](CC(C)C)N(C)C(=O)C[C@@H](C)N(C)C(=O)[C@H]([C@@H](C)CC)N(C)C(=O)C2(CCCC2)NC(=O)[C@@H]2CCCN2C(=O)[C@H](CCc2ccc(C(F)(F)F)c(F)c2)NC(=O)CN(C)C(=O)[C@H](C2CCCC2)N(C)C(=O)[C@@H]2CCN2C(=O)[C@H](C)N(C)C1=O [Compound 909] (cyclo([Ac5c][NMeI][NMedβ3hAla][NMeL]I[NMeA][Aze][NMeGly(cPent)][Sar][hPhe(3-F,4-CF3)]P))	20
